From PubChem BioAssay (NCI)
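Grown in 96-well plates, cells were treated for 48 hours with each compound at five concentrations. Insufficient inhibition: endpoint recorded as highest concentration tested. GI50 marks 50% less growth. TGI marks complete inhibition of growth.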

Experiments:
Test in all cases: inhibition of tumour cell growth, NCI panel, 48 h
786-0 renal = tested on: 786-0 renal
A498 renal = tested on: A498 renal
A549 NSCLC = tested on: A549 NSCLC
ACHN renal = tested on: ACHN renal
BT-549 breast = tested on: BT-549 breast
CCRF-CEM leukemia = tested on: CCRF-CEM leukemia
COLO 205 colon = tested on: COLO 205 colon
EKVX NSCLC = tested on: EKVX NSCLC
HCC-2998 colon = tested on: HCC-2998 colon
HCT-116 colon = tested on: HCT-116 colon
HCT-15 colon = tested on: HCT-15 colon
HL-60(TB) leukemia = tested on: HL-60(TB) leukemia
HOP-62 NSCLC = tested on: HOP-62 NSCLC
HOP-92 NSCLC = tested on: HOP-92 NSCLC
HS 578T breast = tested on: HS 578T breast
HT29 colon = tested on: HT29 colon
IGROV1 ovarian = tested on: IGROV1 ovarian
K-562 leukemia = tested on: K-562 leukemia
KM12 colon = tested on: KM12 colon
LOX IMVI melanoma = tested on: LOX IMVI melanoma
M14 melanoma = tested on: M14 melanoma
MALME-3M melanoma = tested on: MALME-3M melanoma
MCF7 breast = tested on: MCF7 breast
MDA-MB-231 breast = tested on: MDA-MB-231 breast
MDA-MB-435 = tested on: MDA-MB-435
MOLT-4 leukemia = tested on: MOLT-4 leukemia
NCI-H226 lung = tested on: NCI-H226 lung
NCI-H23 lung = tested on: NCI-H23 lung
NCI-H460 lung = tested on: NCI-H460 lung
NCI-H522 lung = tested on: NCI-H522 lung
NCI/ADR-RES ovarian = tested on: NCI/ADR-RES ovarian
OVCAR-3 ovarian = tested on: OVCAR-3 ovarian
OVCAR-4 ovarian = tested on: OVCAR-4 ovarian
OVCAR-5 ovarian = tested on: OVCAR-5 ovarian
OVCAR-8 ovarian = tested on: OVCAR-8 ovarian
PC-3 prostate = tested on: PC-3 prostate
RPMI-8226 leukemia = tested on: RPMI-8226 leukemia
RXF 393 renal = tested on: RXF 393 renal
SF-268 CNS = tested on: SF-268 CNS
SF-295 CNS = tested on: SF-295 CNS
SF-539 CNS = tested on: SF-539 CNS
SK-MEL-2 melanoma = tested on: SK-MEL-2 melanoma
SK-MEL-28 melanoma = tested on: SK-MEL-28 melanoma
SK-MEL-5 melanoma = tested on: SK-MEL-5 melanoma
SK-OV-3 ovarian = tested on: SK-OV-3 ovarian
SN12C renal = tested on: SN12C renal
SNB-19 CNS = tested on: SNB-19 CNS
SNB-75 CNS = tested on: SNB-75 CNS
SR leukemia = tested on: SR leukemia
SW-620 colon = tested on: SW-620 colon
T-47D breast = tested on: T-47D breast
TK-10 renal = tested on: TK-10 renal
U251 CNS = tested on: U251 CNS
UACC-257 melanoma = tested on: UACC-257 melanoma
UACC-62 melanoma = tested on: UACC-62 melanoma
UO-31 renal = tested on: UO-31 renal

With `CCC(C)[C@H]1C(=O)O[C@H](C(C)C)C(=O)N(C)[C@@H](C(C)C)C(=O)O[C@H](C(C)C)C(=O)N(C)[C@@H](C(C)C)C(=O)O[C@H](C(C)C)C(=O)N1C` (some centres not stated) the GI50 (786-0 renal) was 3090 nM, the TGI (786-0 renal) was > 10000 nM and the GI50 (A498 renal) was 2610 nM. For the same compound, the TGI (A498 renal) was 9710 nM, the GI50 (A549 NSCLC) was 3000 nM and the TGI (A549 NSCLC) was > 10000 nM. For the same compound, the GI50 (ACHN renal) was 788 nM, the TGI (ACHN renal) was > 10000 nM and the GI50 (BT-549 breast) was 2500 nM. For the same compound, the TGI (BT-549 breast) was > 10000 nM, the GI50 (CCRF-CEM leukemia) was 3000 nM and the TGI (CCRF-CEM leukemia) was > 10000 nM. It also gave a GI50 (COLO 205 colon) of 1230 nM, a TGI (COLO 205 colon) of 2940 nM and a GI50 (EKVX NSCLC) of 2100 nM. For the same compound, the TGI (EKVX NSCLC) was > 10000 nM, the GI50 (HCC-2998 colon) was 2670 nM and the TGI (HCC-2998 colon) was > 10000 nM. The GI50 (HCT-116 colon) was 2080 nM, the TGI (HCT-116 colon) was > 10000 nM and the GI50 (HCT-15 colon) was 2700 nM. For the same compound, the TGI (HCT-15 colon) was > 10000 nM, the GI50 (HL-60(TB) leukemia) was 2460 nM and the TGI (HL-60(TB) leukemia) was 5260 nM. For the same compound, the GI50 (HOP-62 NSCLC) was 3520 nM, the TGI (HOP-62 NSCLC) was > 10000 nM and the GI50 (HOP-92 NSCLC) was 1210 nM. The TGI (HOP-92 NSCLC) was 6010 nM, the GI50 (HS 578T breast) was 4640 nM and the TGI (HS 578T breast) was > 10000 nM. The GI50 (HT29 colon) was 2570 nM, the TGI (HT29 colon) was > 10000 nM and the GI50 (IGROV1 ovarian) was 3510 nM. For the same compound, the TGI (IGROV1 ovarian) was > 10000 nM, the GI50 (K-562 leukemia) was 1460 nM and the TGI (K-562 leukemia) was > 10000 nM. For the same compound, the GI50 (KM12 colon) was 1570 nM, the TGI (KM12 colon) was > 10000 nM and the GI50 (LOX IMVI melanoma) was 1940 nM. For the same compound, the TGI (LOX IMVI melanoma) was > 10000 nM, the GI50 (M14 melanoma) was 1660 nM and the TGI (M14 melanoma) was > 10000 nM. The GI50 (MALME-3M melanoma) was 577 nM, the TGI (MALME-3M melanoma) was > 10000 nM and the GI50 (MCF7 breast) was 1260 nM. For the same compound, the TGI (MCF7 breast) was > 10000 nM, the GI50 (MDA-MB-231 breast) was 2560 nM and the TGI (MDA-MB-231 breast) was 8150 nM. The GI50 (MDA-MB-435) was 2460 nM, the TGI (MDA-MB-435) was > 10000 nM and the GI50 (MOLT-4 leukemia) was 3610 nM. The TGI (MOLT-4 leukemia) was 9970 nM, the GI50 (NCI-H226 lung) was 3620 nM and the TGI (NCI-H226 lung) was > 10000 nM. For the same compound, the GI50 (NCI-H23 lung) was 1680 nM, the TGI (NCI-H23 lung) was > 10000 nM and the GI50 (NCI-H460 lung) was 1650 nM. The TGI (NCI-H460 lung) was > 10000 nM, the GI50 (NCI-H522 lung) was 1610 nM and the TGI (NCI-H522 lung) was > 10000 nM. The GI50 (NCI/ADR-RES ovarian) was 2120 nM, the TGI (NCI/ADR-RES ovarian) was > 10000 nM and the GI50 (OVCAR-3 ovarian) was 704 nM. The TGI (OVCAR-3 ovarian) was > 10000 nM, the GI50 (OVCAR-4 ovarian) was 2010 nM and the TGI (OVCAR-4 ovarian) was > 10000 nM. For the same compound, the GI50 (OVCAR-5 ovarian) was 3210 nM, the TGI (OVCAR-5 ovarian) was > 10000 nM and the GI50 (OVCAR-8 ovarian) was 2110 nM. For the same compound, the TGI (OVCAR-8 ovarian) was > 10000 nM, the GI50 (PC-3 prostate) was 1560 nM and the TGI (PC-3 prostate) was > 10000 nM. For the same compound, the GI50 (RPMI-8226 leukemia) was 457 nM, the TGI (RPMI-8226 leukemia) was 4930 nM and the GI50 (RXF 393 renal) was 2730 nM. The TGI (RXF 393 renal) was > 10000 nM, the GI50 (SF-268 CNS) was 3850 nM and the TGI (SF-268 CNS) was > 10000 nM. The GI50 (SF-295 CNS) was 717 nM, the TGI (SF-295 CNS) was > 10000 nM and the GI50 (SF-539 CNS) was 3650 nM. For the same compound, the TGI (SF-539 CNS) was > 10000 nM, the GI50 (SK-MEL-2 melanoma) was 3810 nM and the TGI (SK-MEL-2 melanoma) was > 10000 nM. The GI50 (SK-MEL-28 melanoma) was 2720 nM, the TGI (SK-MEL-28 melanoma) was > 10000 nM and the GI50 (SK-MEL-5 melanoma) was 761 nM. It also gave a TGI (SK-MEL-5 melanoma) of 2920 nM, a GI50 (SK-OV-3 ovarian) of 2470 nM and a TGI (SK-OV-3 ovarian) of 7590 nM. For the same compound, the GI50 (SN12C renal) was 1720 nM, the TGI (SN12C renal) was > 10000 nM and the GI50 (SNB-19 CNS) was 2070 nM. For the same compound, the TGI (SNB-19 CNS) was > 10000 nM, the GI50 (SNB-75 CNS) was 2750 nM and the TGI (SNB-75 CNS) was > 10000 nM. For the same compound, the GI50 (SR leukemia) was 3670 nM, the TGI (SR leukemia) was > 10000 nM and the GI50 (SW-620 colon) was 3100 nM. For the same compound, the TGI (SW-620 colon) was > 10000 nM, the GI50 (T-47D breast) was 1080 nM and the TGI (T-47D breast) was 7810 nM. For the same compound, the GI50 (TK-10 renal) was 2580 nM, the TGI (TK-10 renal) was > 10000 nM and the GI50 (U251 CNS) was 2190 nM. The TGI (U251 CNS) was > 10000 nM, the GI50 (UACC-257 melanoma) was 2080 nM and the TGI (UACC-257 melanoma) was > 10000 nM. The GI50 (UACC-62 melanoma) was 631 nM, the TGI (UACC-62 melanoma) was > 10000 nM and the GI50 (UO-31 renal) was 1030 nM. The TGI (UO-31 renal) was > 10000 nM.
